The text below walks through data of patent US12377092B2, “Polycomb inhibitors and uses thereof” (FONDAZIONE ISTITUTO FIRC DI ONCOLOGIA MOLECOLARE (IFOM), priority 2017, dated 2025).

Assay [1] concerns EndMT markers (Klf4, Sca1 and Fsp1). In words: Real time (RT-PCR) analysis of EndMT markers, wild type and CCM3 knock out immortalized lung endothelial cells. The class given is cell-based, mouse. Conditions: 72 hours. The procedure: (§1) Cells were seeded 6.3×10^4 cells/cm^2. The day after, PTC209 and UNC1999 were added to the confluent cells. Drugs were left for one or three days depending on the aim of the experiment. Final concentrations used for the two drugs were: 1 uM PTC209 and 5 uM UNC1999.
RNA extraction was performed both with (A) RNeasy kits (Promega) or (B) RNAeasy Mini Kit (QIAGEN). The latter allows also the extraction of proteins from the same sample. The RNA (500 ng) was reverse transcribed with random hexamers (High Capacity cDNA Archive kits; Applied Biosystems) in a final volume of 30 uL. Reaction were made with a thermocycler (Eppendorf) 10 min at 25° C. followed by 2 hours at 37° C. cDNA (5 ng) was amplified in triplicate in a reaction volume of 15 uL using TaqMan Gene Expression Assays (Applied Biosystems) in a ABI/Prism 7900 HT using a pre PCR step of 10 min at 95° C., followed by 40 cycles of 15 seconds at 95° C. and 60 seconds at 60° C. For each sample, the expression level was determined with the comparative threshold cycle (Ct) method, and normalized to the housekeeping genes encoding 18S, glyceraldehyde-3-phosphate dehydrogenase (GAPDH) and hypoxanthine-guanine phosphoribosyltransferase (hprt1). Ct or threshold cycle, represents the PCR cycle at which an increase in reporter fluorescence above a base-line signal can first be detect.
(§2) Wild type and CCM3 knock out cells were treated with either PTC209 or DMSO starting from the day after seeding, when cells were confluent. For this experiment cells were lysed for western blot and real-time analysis after 72 hours of treatment to check a long-term effect of PTC209.
(§3) To perform these experiments, immortalized lung endothelial cells both wild type and CCM3 knock out were treated, with the same experimental strategy used for PTC209, with UNC1999 for 72 hours and subsequently lysed for western blot and real time analysis. UNC1999 was used in its specific optimal concentration, which was different to PTC209. As control DMSO was given to the cells in a volume equal to the volume of DMSO in which UNC1999 was previously dissolved to rich the optimal concentration.
(§4) Briefly, wild type and CCM3 knock out cells were treated with either PTC209, UNC1999 or a combination of the two. PTC209 and UNC1999 were administrated at the same concentration used for the single treatment and DMSO was given as control in a volume equal to the sum of volumes of DMSO in which UNC1999 and PTC209 were previously dissolved.

Another assay has as its system VE-cadherin. In words: Western blot analysis of VE-cadherin, CCM3 knock out cells. The class given is cell-based, mouse. Conditions: 72 hours. The procedure:
as §1
Confluent cells were lysed with boiling modified Laemi sample Buffer (2% SDS, 20% glycerol, and 125 mM Tris-HCl, pH 6.8). Lysates were incubated for 10 minutes at 100° C. to allow proteins denaturation. Protein concentration was estimated using the BCA Protein Assay Kit (Pierce). Equal amount of proteins was loaded on a gel, separated by SDS-PAGE and transferred to a Protran Nitrocellulose Membrane (Whatman) 0.2 um pores. The membranes were blocked for 1 hour at RT in Tris Buffered Saline (TBS: NaCl 150 mM, Tris-HCl 10 mM pH 7.4) plus 0.1% Tween-20 containing 5% BSA or milk. […] Membranes were rinsed three times with TBST for 5 minutes each and specific bindings were detected by enhanced chemiluminescence (ECL) system (Amersham Bioscience) using ChemiDoc XRS gel imaging system (Bio-Rad).
Experiment with combined PTC209 and UNC1999 treatments was repeated with the same experimental conditions described before and junction organisation was analysed through VE-cadherin staining and protein expression analysis (FIG. 19).

The next assay has as its system PRC2. Conditions: Konze et al., 2013; cited from earlier work.
The subject of assay [2] is EndMT markers (Klf4, Sca1 and Fsp1). In words: Western blot analysis of EndMT markers, wild type and CCM3 knock out immortalized lung endothelial cells. The class given is cell-based, mouse. Conditions: 72 hours. On the procedure:
as §1
Confluent cells were lysed with boiling modified Laemi sample Buffer (2% SDS, 20% glycerol, and 125 mM Tris-HCl, pH 6.8). Lysates were incubated for 10 minutes at 100° C. to allow proteins denaturation. Protein concentration was estimated using the BCA Protein Assay Kit (Pierce). Equal amount of proteins was loaded on a gel, separated by SDS-PAGE and transferred to a Protran Nitrocellulose Membrane (Whatman) 0.2 um pores. The membranes were blocked for 1 hour at RT in Tris Buffered Saline (TBS: NaCl 150 mM, Tris-HCl 10 mM pH 7.4) plus 0.1% Tween-20 containing 5% BSA or milk. The membranes were incubated with primary antibodies diluted in TBST (TBS plus 0.1% Tween-20) containing 5% of either BSA or milk overnight at 4° C. Next, membranes were rinsed three times with TBST for 5 minutes each and incubated for 45 minutes at RT with HRP-linked secondary antibodies diluted in TBST containing 5% BSA/milk. Membranes were rinsed three times with TBST for 5 minutes each and specific bindings were detected by enhanced chemiluminescence (ECL) system (Amersham Bioscience) using ChemiDoc XRS gel imaging system (Bio-Rad).
as §2, §3, §4

Where [3] appears, read: CCM3 knock out cells, 1 uM PTC209, 5 uM UNC1999, vs DMSO.
The mark [4] stands for this setting: wild type cells (physiological condition), CCM3 model.

Each structure is given as a SMILES string. “Also recorded” adds a separate entry of the source.

`CCCc1cc(C)[nH]c(=O)c1CNC(=O)c1cc(-c2ccc(N3CCN(C(C)C)CC3)nc2)cc2c1cnn2C(C)C` [UNC1999, N-[(6-methyl-2-oxo-4-propyl-1H-pyridin-3-yl)methyl]-1-propan-2-yl-6-[6-(4-propan-2-ylpiperazin-1-yl)pyridin-3-yl]indazole-4-carboxamide]: the “Klf4, Sca1 and Fsp1 transcripts (real time analysis)” value in assay [1] (setting [3]) is given as “downregulation”. For the same molecule, the “Klf4 transcript (real time analysis)” value in assay [1] (setting [4]) is reported as “not influenced”. For the same molecule, the “VE-cadherin protein expression level (western blot)” value in the assay on VE-cadherin is listed as “did not show any rescue”. Moreover, in the assay with PRC2, the “Hystone-methyl transferase activity of PRC2” value is recorded as “blocked”. Further, the “EndMT markers (Klf4, Sca1, Fsp1) protein expression (western blot)” value in assay [2] (setting [3]) was “downregulation; also recorded: inhibition of the upregulation”. Also, in assay [2] (CCM3 knock out cells, 5 uM UNC1999, western blot and real time), the “downregulation of EndMT protein and gene expressions compared with PTC209” value was “not as strong as the downregulation observed upon administration of PTC209”. Moreover, the “Klf4 protein (western blot)” value in assay [2] (setting [4]) is reported as “not influenced”.
